Experimental data taken from patent US5164314A, “Microbiologically-prepared diacetyl reductase” (priority 1988, dated 1992).
“And” between values parts separate entries of the source, which are not always exact repeats. Equal values may be shown once. Read-outs that look alike come from different tables or passages of the source. Each block holds one compound with its values, some of them ahead of it.

Experiments:
diacetyl reductase [1] = assay: Acetoin oxidation reaction with NAD as coenzyme; format: biochemical, Lactobacillus kefir; conditions: pH and concentrations altered
[2] = test system: Lc. enzyme (diacetyl reductase); assay: Effect of various metal cations and inhibitors on the diacetyl-reducing activity; format: biochemical, Lactobacillus kefir; conditions: for Inhibition of the enzyme (in words): 1 mM concentration
Experimental: In order to determine the behavior of the diacetyl-reducing activity in the presence of metal cations and inhibitors, the appropriate substances were added in a concentration of 1 mM to the assay, and the activities were determined after an incubation time of 5 min at 20° C. The absorption characteristics of diacetyl made it necessary to determine two blanks, one measured with replacement of enzyme solution, and the other measured by replacing substrate solution by buffer.

diacetyl reductase E1 [3] = assay: Substrate spectrum and KM determination, enzyme E1; format: biochemical, Lactobacillus kefir; parameters: Rel. Vmax E1: unit not given here
diacetyl reductase E1 [4] = assay: Stereospecificity by oxidation of D(-)- and L(+)-lactic acid, enzyme E1; format: biochemical, Lactobacillus kefir; conditions: NAD+, potassium phosphate buffer pH 7.0
Excerpt: (§1) But since the enzyme can also reduce pyruvate (as shown in Table 5), this provides a method of establishing the stereospecificity on the basis of the pair of substrates (+)- and (-)-lactate. In assay mixtures with D(-)- or L(+)-lactic acid and NAD^+ in potassium phosphate buffer (pH 7.0), the two enzymes E1 and E2 were able to convert D(-)-lactic acid very well, whereas […] was converted with 5% of this activity by E1 and with 4% of this activity by E2.

diacetyl reductase E2 [5] = assay: Stereospecificity by oxidation of D(-)- and L(+)-lactic acid, enzyme E2; format: biochemical, Lactobacillus kefir; conditions: NAD+, potassium phosphate buffer pH 7.0
Excerpt: as §1

diacetyl reductase E2 [6] = assay: Substrate spectrum and KM determination, enzyme E2; format: biochemical, Lactobacillus kefir
Experimental: To determine KM, the activity of both Lactobacillus enzymes was measured as a function of the substrate concentration.
Various substrates were assayed with the most highly-purified preparations of the Lc. enzymes E1 and E2. The maximum conversion rate and KM were measured for each substrate by altering the concentration.

diacetyl reductase [7] = test system: diacetyl reductase
Experimental: The enzyme was incubated with various concentrations of manganese chloride in an ice bath for 1 hour. The activity of each sample was then determined and, after 15 and 30 min, the activities were redetermined by renewed NADH addition.

[8] = Conversion of diacetyl by available lactate dehydrogenase; format: biochemical
Excerpt: But it can be stated that, when available lactate dehydrogenase is used, diacetyl is not converted.

[9] = 1 mM, incubation 5 min at 20° C.
[10] = most highly-purified E1, read-out: Km E1
[11] = most highly-purified E2, read-out: Km E2

- acetoin oxidation reaction (in words) (diacetyl reductase [1]): never possible to measure
Compound: CC(=O)C(C)O (single isomer, unassigned) [acetoin]

- Residual activity of the Lc. enzyme [2, 9]: 72%
Compound: O[C@H](CS)[C@@H](O)CS [1,4-Dithioerythritol]

- Inhibition of the enzyme (in words) [2]: strong inhibition
- Residual activity of the Lc. enzyme [2, 9]: 0%
Compound: c1cnc2c(c1)ccc1cccnc12 [1,10-Phenanthroline]

Compound: c1ccc(-c2ccccn2)nc1 [2,2'-Bipyridyl]
- Residual activity of the Lc. enzyme [2, 9]: 19%

Compound: O=C(O)c1cc(SSc2ccc([N+](=O)[O-])c(C(=O)O)c2)ccc1[N+](=O)[O-] [2,2'-Dinitro-5,5'-dithiodibenzoic acid]
- Inhibition of the enzyme (in words) [2]: strong inhibition
- Residual activity of the Lc. enzyme [2, 9]: 0%

Compound: CC(=O)CCC(C)=O [2,5-Hexanedione]
- Rel. Vmax E1 (diacetyl reductase E1 [3]; most highly-purified E1): 7
- Km (diacetyl reductase E1 [3]; [10]): 26 mM

Compound: CC(=O)CC(C)=O [Acetylacetone, 2,4-pentanedione]
- Km (diacetyl reductase E1 [3]; enzyme not named in b63 (E1 in Table 5), read-out: Km for acetylacetone): 50 mM
- Rel. Vmax E1 (diacetyl reductase E1 [3]; most highly-purified E1): 8
- Km (diacetyl reductase E1 [3]; [10]): 50 mM

Compound: [Ba+2].[Cl-].[Cl-] [BaCl2]
- Residual activity of the Lc. enzyme [2, 9]: 102%

Compound: [Ca+2].[Cl-].[Cl-] [CaCl2]
- Residual activity of the Lc. enzyme [2, 9]: 96%

Compound: [Cl-].[Cl-].[Co+2] [CoCl2]
- Residual activity of the Lc. enzyme [2, 9]: 102%

Compound: [Cl][Cu][Cl] [CuCl2]
- Inhibition of the enzyme (in words) [2]: strong inhibition
- Residual activity of the Lc. enzyme [2, 9]: 0%

- Conversion of lactic acid by E1 (in words) (diacetyl reductase E1 [4]): very well
- Conversion of lactic acid by E2 (in words) (diacetyl reductase E2 [5]): very well
Compound: C[C@@H](O)C(=O)O [D(-)-lactic acid]

- diacetyl concentration of substrate saturation, E1 (diacetyl reductase E1 [3]): above 1 M
- Rel. Vmax E1 (diacetyl reductase E1 [3]; most highly-purified E1): 100
- diacetyl concentration of substrate saturation, E2 (diacetyl reductase E2 [6]): above 1 M
- Km (diacetyl reductase E2 [6]; linear regression of Lineweaver-Burke plot, read-out: Km (E2)): 67 mM
- Rel. Vmax E2 (diacetyl reductase E2 [6]; most highly-purified E2): 100
- Km (diacetyl reductase E2 [6]; [11]): 67 mM
- Km (diacetyl reductase E2 [6]; pH 4.25, read-out: KM for the reduction of diacetyl (E2)): 67 mM
Compound: CC(=O)C(C)=O [Diacetyl]

- Residual activity of the Lc. enzyme [2, 9]: 100%
Compound: CCC(CC)(C(=O)O)C(=O)O [Diethylmalonic acid]

- Residual activity of the Lc. enzyme [2, 9]: 106%
Compound: O[C@H](CS)[C@H](O)CS [Dithiothreitol]

Compound: O=C(O)CN(CCN(CC(=O)O)CC(=O)O)CC(=O)O [EDTA]
- Residual activity of the Lc. enzyme [2]: 94%

- Rel. Vmax E1 (diacetyl reductase E1 [3]; most highly-purified E1): 109
- Km (diacetyl reductase E1 [3]; [10]): 2.4 mM
- Rel. Vmax E2 (diacetyl reductase E2 [6]; most highly-purified E2): 77
- Km (diacetyl reductase E2 [6]; [11]): 2.1 mM
Compound: CCOC(=O)C(C)=O [Ethyl pyruvate]

Compound: [Cl][Fe][Cl] [FeCl2]
- Inhibition of the enzyme (in words) [2]: strong inhibition
- Residual activity of the Lc. enzyme [2, 9]: 0%

Compound: [Cl][Fe]([Cl])[Cl] [FeCl3]
- Residual activity of the Lc. enzyme [2, 9]: 82%

- Residual activity of the Lc. enzyme [2, 9]: 103%
Compound: N[C@@H](CCC(=O)N[C@@H](CS)C(=O)NCC(=O)O)C(=O)O [Gluthathione]

Compound: [Cl][Hg][Cl] [HgCl2]
- Inhibition of the enzyme (in words) [2]: strong inhibition
- Residual activity of the Lc. enzyme [2, 9]: 0%

Compound: NC(=O)CI [Iodoacetamide]
- Residual activity of the Lc. enzyme [2, 9]: 99%

Compound: O=C(O)CI [Iodoacetic acid]
- Residual activity of the Lc. enzyme [2]: 102%

- Activity relative to that with D(-)-lactic acid, E1 (diacetyl reductase E1 [4]): 5%
- Activity relative to that with D(-)-lactic acid, E2 (diacetyl reductase E2 [5]): 4%
Compound: C[C@H](O)C(=O)O [L(-)-lactic acid, L(+)-lactic acid]

- Residual activity of the Lc. enzyme [2, 9]: 100%
Compound: N[C@H]1CONC1=O [L-Cycloserine]

Compound: [Cl-].[Cl-].[Mg+2] [MgCl2]
- Inhibition of the enzyme (in words) [2]: strong inhibition
- Residual activity of the Lc. enzyme [2, 9]: 0%

Compound: [Cl][Mn][Cl] [MnCl2, manganese chloride]
- Residual activity of the Lc. enzyme [2, 9]: 91%
- rel. activity (diacetyl reductase [7]; 1 mM manganese, 15 min): 69%
- rel. activity (diacetyl reductase [7]; 1 mM manganese, 30 min): 0.3%
- rel. activity (diacetyl reductase [7]; 1 mM manganese, t = 0): 100%
- rel. activity (diacetyl reductase [7]; 2 mM manganese, 15 min): 79%
- rel. activity (diacetyl reductase [7]; 2 mM manganese, 30 min): 25%
- rel. activity (diacetyl reductase [7]; 2 mM manganese, t = 0): 100%
- Effect on enzyme stability (in words) (diacetyl reductase [7]; 5 mM): distinctly stabilizes the enzyme
- rel. activity (diacetyl reductase [7]; 5 mM manganese, 15 min): 88%
- rel. activity (diacetyl reductase [7]; 5 mM manganese, 30 min): 39%
- rel. activity (diacetyl reductase [7]; 5 mM manganese, t = 0): 100%
- rel. activity (diacetyl reductase [7]; 10 mM manganese, 15 min): 46%
- rel. activity (diacetyl reductase [7]; 10 mM manganese, 30 min): 19%
- rel. activity (diacetyl reductase [7]; 10 mM manganese, t = 0): 100%

Compound: CCN1C(=O)C=CC1=O [N-Ethylmaleimide]
- Residual activity of the Lc. enzyme [2, 9]: 112%

Compound: NC(=O)C1=CN([C@@H]2O[C@H](COP(=O)(O)OP(=O)(O)OC[C@H]3O[C@@H](n4cnc5c(N)ncnc54)[C@H](O)[C@@H]3O)[C@@H](O)[C@H]2O)C=CC1 [NADH, nicotinamide adenine dinucleotide, reduced]
- Rel. Vmax E1 (diacetyl reductase E1 [3]; most highly-purified E1): 100
- Km (diacetyl reductase E1 [3]; [10]): 0.03 mM
- Rel. Vmax E2 (diacetyl reductase E2 [6]; most highly-purified E2): 100
- Km (diacetyl reductase E2 [6]; [11]): 0.036 mM

Compound: [Cl][Ni][Cl] [NiCl2]
- Residual activity of the Lc. enzyme [2, 9]: 100%

Compound: O=S(=O)(F)Cc1ccccc1 [PMSF]
- Inhibition of the enzyme (in words) [2]: less inhibition
- Residual activity of the Lc. enzyme [2, 9]: 29% and 30%

Compound: NNc1ccccc1 [Phenylhydrazine]
- Inhibition of the enzyme (in words) [2]: strong inhibition
- Residual activity of the Lc. enzyme [2, 9]: 0%

Compound: [Cl-].[Cl-].[Zn+2] [ZnCl2]
- Residual activity of the Lc. enzyme [2, 9]: 85%

Compound: O=C(O)c1cc[c]([Hg+])cc1.[OH-] [p-Hydroxymercuribenzoate]
- Residual activity of the Lc. enzyme [2, 9]: 79%

Compound: Diacetylbenzene
- Rel. Vmax E1 (diacetyl reductase E1 [3]; most highly-purified E1): 1.3

Compound: Triton X-100
- Residual activity of the Lc. enzyme [2, 9]: 113%

Compound: lactate dehydrogenase
- conversion of diacetyl (in words) [8]: not converted
